This assay concerns the target T1, Glycogen phosphorylase, muscle form (Oryctolagus cuniculus, UniProt P00489).
T1 sequence (P00489 whole entry): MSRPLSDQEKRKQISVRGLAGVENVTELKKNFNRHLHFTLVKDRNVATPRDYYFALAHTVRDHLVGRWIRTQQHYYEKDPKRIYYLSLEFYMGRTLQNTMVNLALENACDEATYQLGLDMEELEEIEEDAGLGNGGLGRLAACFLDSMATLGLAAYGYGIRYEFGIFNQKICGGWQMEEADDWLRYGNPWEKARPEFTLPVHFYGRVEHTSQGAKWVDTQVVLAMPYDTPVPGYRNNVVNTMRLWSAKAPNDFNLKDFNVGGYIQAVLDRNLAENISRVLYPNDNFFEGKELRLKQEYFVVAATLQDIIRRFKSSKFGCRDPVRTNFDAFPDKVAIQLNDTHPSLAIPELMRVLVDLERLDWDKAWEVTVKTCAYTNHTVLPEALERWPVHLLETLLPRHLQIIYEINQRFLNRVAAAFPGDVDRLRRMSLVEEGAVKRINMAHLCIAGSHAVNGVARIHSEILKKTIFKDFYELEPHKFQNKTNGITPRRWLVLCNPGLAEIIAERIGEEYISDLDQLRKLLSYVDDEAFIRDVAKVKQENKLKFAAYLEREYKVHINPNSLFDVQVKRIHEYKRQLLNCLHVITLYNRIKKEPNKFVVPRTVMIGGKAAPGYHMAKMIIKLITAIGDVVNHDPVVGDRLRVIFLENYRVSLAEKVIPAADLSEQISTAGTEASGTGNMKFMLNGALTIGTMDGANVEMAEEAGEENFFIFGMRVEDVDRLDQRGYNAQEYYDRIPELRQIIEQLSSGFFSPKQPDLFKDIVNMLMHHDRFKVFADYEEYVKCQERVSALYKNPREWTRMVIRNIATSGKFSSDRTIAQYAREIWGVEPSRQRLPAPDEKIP
Description: Inhibition of rabbit muscle glycogen phosphorylase b
One may read the Ki as a measure of affinity in units of concentration, obtained from inhibition or displacement. A lower Ki goes with a stronger hold on the target. `O=C(N[C@@H]1O[C@H](CO)[C@@H](O)[C@H](O)[C@H]1O)c1cccc2ccccc12` had an inhibitory constant (Ki) of 444 µM.

Molecule `CC(=O)NC(=O)N[C@@H]1O[C@H](CO)[C@@H](O)[C@H](O)[C@H]1O` showed an inhibitory constant (Ki) of 305 µM.

The molecule `OC[C@H]1O[C@]2(ON=C(c3ccccc3)S2)[C@H](O)[C@@H](O)[C@@H]1O` had an inhibition constant Ki of 26 µM.

Take `CC(=O)NC1O[C@H](CO)[C@@H](O)[C@H](O)[C@H]1O` (single isomer, unassigned): the affinity corresponds to a Ki of 32 µM.

`O=C(NC1O[C@H](CO)[C@@H](O)[C@H](O)[C@H]1O)c1ccccc1` (single isomer, unassigned) gave an inhibition constant Ki of 81 µM.

`O=C(NC(=O)c1cccc2ccccc12)N[C@@H]1O[C@H](CO)[C@@H](O)[C@H](O)[C@H]1O`: affinity was put at a Ki of 5 µM.

Turning to `OC[C@H]1O[C@]2(ON=C(c3ccc(F)cc3)S2)[C@H](O)[C@@H](O)[C@@H]1O`, the Ki amounted to 28 µM.

`O=C(NC(=O)c1ccc2ccccc2c1)N[C@@H]1O[C@H](CO)[C@@H](O)[C@H](O)[C@H]1O`: affinity was put at a Ki of 0.35 µM.

Consider `COc1ccc(C2=NO[C@]3(O[C@H](CO)[C@@H](O)[C@H](O)[C@H]3O)S2)cc1`, for which the affinity, expressed as Ki, was 8 µM.

These data come from ChEMBL document CHEMBL1144234, “Novel design principle validated: glucopyranosylidene-spiro-oxathiazole as new nanomolar inhibitor of glycogen phosphorylase, potential antidiabetic agent” (Bioorg Med Chem Lett, 2008).
